Measurements as given in US20240269104A1, “METHOD FOR TREATING PARKINSON'S DISEASE” (Olatec Therapeutics, Inc., priority 2021, published 2024).

Key:
[1] = brain levels of dapansutrile after fortified feed pellets; assay type: in vivo, mice; conditions: oral
Description: Mice were treated with dapansutrile by ad libitum consumption of dapansutrile-fortified feed pellets (7.5 g/kg) for 21 days. Control mice received a matching unfortified diet without dapansutrile. Mice were monitored during the study for any changes in physiological parameters, including irregular weight gain or loss as well as changes in body temperature. On day 21, mice were sacrificed, and brains were isolated. Dapansutrile measurements in the whole brain homogenates were performed at Syneos Health (Princeton, NJ). Five mice per group were assessed. […] The ability of dapansutrile to cross BBB even when delivered orally provides a potential advance for the treatment of chronic patients like PD.

IL-6 = IL-6 in LPS-stimulated cultured splenocytes from MPTP-injected mice; assay type: in vivo; conditions: mice treated 200 mg/kg for seven days; splenocytes cultured with LPS, supernatant
Description: Seven days after MPTP-acute administration, peripheral blood and spleen were isolated from each mouse, and hematological changes in the peripheral blood and cytokine production in the spleen were evaluated. […] White blood cells, lymphocytes, monocytes, and granulocytes were measured from the peripheral blood using a HemaTrue cell counter (Heska, Loveland, CO). Spleens were isolated and mechanically passed through a 70 μm cell strainer (ThermoFisher) in PBS. Cells were plated in a 96-well plate at a concentration of 200,000 cells/well in RPMI medium (Coring, New York, NY) with 10% FBS. After that, cells were stimulated with LPS at 1 μg/ml and 5 μg/ml. RPMI medium was used as control. After 72 hours, supernatant was isolated to measure the levels of IL-6. Cells were lysed with RIPA buffer (ThermoFisher) supplemented with protease inhibitor (ThermoFisher) to measure IL-1α levels. In both cases, 5-6 mice per group were used.

[2] = fortified feed pellets, 21 days

In the case of `CS(=O)(=O)CCC#N` [dapansutrile, 3-methanesulfonylpropionitrile], the concentration at 21 days ([1]; mouse, brain (whole brain homogenate), fortified feed pellets 7.5 g/kg ad libitum, whole brain homogenates, read-out: dapansutrile level in the brain) is reported as 47000 ng/g, the “brain level relative to concentration required to inhibit the NLRP3 assembly” value [1, 2] is reported as “at least 30 times” and the “crossing of the blood-brain barrier” value [1, 2] is reported as “readily crosses the BBB”. For the same compound, the “IL-6 production by splenocytes” value (IL-6) was “restoring the effects of MPTP”.
